Paper PMC6554712 (Biochemistry, 2018)

What was measured:
FomD = FomD (Streptomyces fradiae, UniProt D2SNF7); experiment: […]-NMR hydrolysis assay; format: biochemical; conditions: 100 μM FomD, 6 mM racemic HPP-CMP
Fom3 = Fom3 (Streptomyces fradiae, UniProt D2SNF5); experiment: Mössbauer spectroscopy of […]-labelled enzyme; format: binding; conditions: 4.2 K, 53 mT; binds to the [4Fe-4S] cluster
[1] = substrate: Nc1ccn([C@@H]2O[C@H](COP(=O)(O)OP(=O)(O)CCO)[C@@H](O)[C@H]2O)c(=O)n1; experiment: steady-state kinetics, HPP-CMP formation by LC-MS/MS; format: biochemical, Streptomyces fradiae; conditions: 1 μM Fom3, SAM, Ti(III)citrate as reductant, anaerobic

Sequence of FomD (D2SNF7 whole entry): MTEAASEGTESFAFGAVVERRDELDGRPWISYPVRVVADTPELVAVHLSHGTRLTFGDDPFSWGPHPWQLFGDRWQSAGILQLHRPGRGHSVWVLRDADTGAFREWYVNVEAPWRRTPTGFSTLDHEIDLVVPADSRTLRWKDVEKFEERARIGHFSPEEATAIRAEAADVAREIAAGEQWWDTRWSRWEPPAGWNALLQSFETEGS

Molecule: CC(O)CP(=O)(O)OP(=O)(O)OC[C@H]1O[C@@H](n2ccc(N)nc2=O)[C@H](O)[C@@H]1O (stereo partly shown) [HPP-CMP]
- 31P-NMR hydrolysis assay (FomD): FomD from S. fradiae was overproduced and purified and then used in a reaction

Molecule: C[S+](CC[C@H](N)C(=O)O)C[C@H]1O[C@@H](n2cnc3c(N)ncnc32)[C@H](O)[C@@H]1O (stereo partly shown) [SAM]
- Mössbauer spectroscopy of 57Fe-labelled enzyme (Fom3): Upon incubating as-isolated Fom3 with SAM

B1: Fom3 (Streptomyces fradiae) (protein)
chain: MTIGSLGSTEFALHGKPAIRWGDLPQRVGKKASRRYQKVLLLNPSATLFRHDLPRCTYPLGLGYIAAVLEKYDYEVKILDVFAEGYYNAQPVDGDEQFLRYGLSDDDIVKVIKEFAPDVIGISSIFSNQADNVHHLLKLADLVAPEAVTSIGGAHARYFPKACLDDPNLDAVFLGEGEMTFLLWLEHLNGNVREDEVHGIAWRDRDGKIQIKPELPLISSMRPEGPEQGKSSPMLSMAGELDHIPFPAWHHYNMEKYFEIKAYQSPYTVGSRVGQLYTSRGCTAHCTFCTTTHFWGQKLRRRSVDNVVNEVLRLRDEYGIDEFHIQDDNITNDMDHARELFRAFKEVGLPWATPQGTALWRMDEELLDLMAESGAYQVTFAIESGVQRVLKDLIKKPLNLGRTSHLIKYARSLGMHVHGFFIIGMPPMFGNAGESIEEMQASYDYAEESGFSSASFFAASPIVGSELLRECIRQGFVDPEESLYRMTYKQGIINVPGLWDGEEIAELAAKFNRDFNARRDRDYTPQKQWNANQY
- Km [1]: 74 µM
- kcat [1]: ~0.013 s⁻¹
